Patent EP0495091B1 (Metabasis Therapeutics Inc., priority 1990, dated 1992)
Where a name gives a salt, the structure may show the parent alone. Read-outs that look alike come from different tables or passages of the source.

Columns and labels:
[1] = system: coronary endothelial cells; experiment: Inhibition of adenosine utilization in cell culture; type: cell-based; conditions: for inhibition at 5 µM / inhibition at 50 µM: Endothelial cell, read-out: Inhibition of Adenosine Utilization (%)
Procedure: Inhibition of adenosine utilization was determined by measuring the concentration of extracellular adenosine by scintillation counting following separation by thin layer chromatography (TLC).

[2] = molecular target: T1, NBTI-specific adenosine transport site (Homo sapiens, UniProt Q99808); experiment: [3H]-NBTI binding assay; conditions: 50% displacement of bound [3H]-NBTI (0.5 nM); neuronal membrane protein, 30 minutes, pH 7.4, room temperature; read-out: ED50 (the source's name)
T1 construct: incubated for 30 minutes with 0.5 mg neuronal membrane protein together with 0.5 nM [^3H]-NBTI; from tissue
T1 sequence (Q99808 1-456): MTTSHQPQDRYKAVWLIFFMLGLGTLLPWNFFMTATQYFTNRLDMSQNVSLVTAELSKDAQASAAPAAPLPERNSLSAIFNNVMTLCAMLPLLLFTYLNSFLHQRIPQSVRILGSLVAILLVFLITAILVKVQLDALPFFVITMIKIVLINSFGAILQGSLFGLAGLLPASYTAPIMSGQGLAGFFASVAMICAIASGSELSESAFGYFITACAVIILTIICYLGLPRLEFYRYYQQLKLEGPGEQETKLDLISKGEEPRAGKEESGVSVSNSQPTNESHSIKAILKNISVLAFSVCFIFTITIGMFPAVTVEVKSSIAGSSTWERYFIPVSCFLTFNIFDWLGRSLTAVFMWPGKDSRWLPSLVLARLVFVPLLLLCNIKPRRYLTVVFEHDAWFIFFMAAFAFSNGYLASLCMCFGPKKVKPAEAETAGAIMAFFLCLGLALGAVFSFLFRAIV
Procedure: Increasing concentrations of the test compounds were incubated for 30 minutes with 0.5 mg neuronal membrane protein together with 0.5 nM [^3H]-NBTI in a Tris buffer (pH 7.4) at room temperature. The assays were quenched and membranes collected by rapid filtration. Filters were then solubilized and radioactivity determined by scintillation counting.

[3] = system: longitudinal muscle from the guinea pig ileum; experiment: Inhibition of stimulated contraction in isolated ileum
Procedure: Parallel platinum electrodes were used to deliver electrical current at 1 minute intervals at a voltage adequate to induce contraction of 90% of maximal.

Isolated rat hearts = experiment: Improved functional recovery in isolated hearts (Langendorff, post-ischemic LVDP); conditions: 5 µM in perfusion buffer; 30 min ischemia, 30 min reperfusion; number in brackets = hearts
Procedure: Isolated rat hearts were cannulated via the ascending aorta and attached to a perfusion apparatus according to the method of Langendorff. The hearts were perfused at a constant pressure of 100 cm of H2O with a modified Krebs-Henseleit buffer (pH 7.4) at 37°C. As a measure of heart function, left ventricular developed pressure (LVDP) was continuously monitored. Following equilibration of the hearts for a period of 30 min., the hearts were subjected to reduced flow i.e. ischemia, by reducing the pressure to 10 cm of H2O for 30 min. Flow was then restored by returning the pressure to its original level (100 cm of H2O) for a further 30 min.

[4] = Cavia porcellus, concentration which inhibited electrically stimulated contraction by 50%, read-out: IC50
[5] = concentration which inhibited electrically stimulated contraction by 50%, read-out: IC50
[6] = 50 µM test compound, 1 µM [3H] adenosine, 15 minutes
[7] = 5 µM test compound, 1 µM [3H] adenosine, 15 minutes

Structure (SMILES)	EC50 [2]	Function Recovery % Baseline LVDP (% of hearts) (Isolated rat hearts)	further results
Nc1c(C(=O)N2CCc3ccccc32)ncn1[C@@H]1O[C@H](CO)[C@@H](O)[C@H]1O [Compound No. 48, 5-Amino-1-β-D-ribofuranosyl-imidazole-4-N-indolinylcarboxamide]	22 µM	–	inhibition at 5 µM [1]: 23 ± 3%; inhibition at 50 µM [1]: 25 ± 2%
Nc1c(C(=O)NCc2cccc(Cl)c2)ncn1[C@@H]1O[C@H](CO)[C@@H](O)[C@H]1O [Compound No. 35, 5-amino-1-β-D-ribofuranosyl-imidazole-4-N[(3-chlorophenyl)methyl]carboxamide]	–	–	IC50 [3, 4]: 60 µM
C[C@H](NC(=O)c1ncn([C@@H]2O[C@H](CO)[C@@H](O)[C@H]2O)c1N)c1ccc([N+](=O)[O-])cc1 [Compound No. 50, (S)-5-Amino-1-β-D-ribofuranosylimidazole-4-N-[1-(4-nitrophenyl)ethyl]carboxamide]	28 µM	–	–
CN(C)c1ccc(CNC(=O)c2ncn([C@@H]3O[C@H](CO)[C@@H](O)[C@H]3O)c2N)cc1 [Compound No. 41, 5-Amino-1-β-D-ribofuranosylimidazole-4-N(4-dimethylaminobenzyl)-carboxamide hydrochloride]	–	–	IC50 [3, 5]: 100 µM
CCN(CC)C[C@H]1O[C@@H](n2cnc(C(N)=O)c2N)[C@H](O)[C@@H]1O [compound 65, 5-Amino-1-(5-deoxy-5-diethylaminoribo-β,D-furanosyl)imidazole-4-carboxamide]	–	72.3±5.6 (4) %	–
CNC[C@H]1O[C@@H](n2cnc(C(N)=O)c2N)[C@H](O)[C@@H]1O [Compound No. 63, 5-Amino-1-β-D-(5-deoxy-5-methylaminoribofuranosyl)imidazole-4-carboxamide]	–	79.7±4.8 (4) %	–
C[C@@H](NC(=O)c1ncn([C@@H]2O[C@H](CO)[C@@H](O)[C@H]2O)c1N)c1ccc([N+](=O)[O-])cc1 [Compound No. 49]	7 µM	–	inhibition at 5 µM [1]: 30 ± 4%; inhibition at 50 µM [1]: 33 ± 8%
Nc1c(C(=O)Nc2ccc(Br)cc2)ncn1[C@@H]1O[C@H](CO)[C@@H](O)[C@H]1O [Compound No. 55, 5-Amino-1-β-D-ribofuranosylimidazole-4-N-(4-bromophenyl)carboxamide]	60 µM	–	–
Nc1c(C(=O)Nc2ccc(I)cc2)ncn1[C@@H]1O[C@H](CO)[C@@H](O)[C@H]1O [Compound No. 57, 5-Amino-1-β-D-ribofuranosyl-imidazole-4-N-(4-iodophenyl)carboxamide]	80 µM	–	–
Nc1c(C(=O)NCc2ccc([N+](=O)[O-])cc2)ncn1[C@@H]1O[C@H](CI)[C@@H](O)[C@H]1O [Compound No. 46, 5-Amino-1-(5-iodo-5-deoxy-β-D-ribofuranosyl)imidazole-4-N-[(4-nitrophenyl)methyl]carboxamide]	8 µM	–	inhibition at 5 µM [1]: 19 ± 4%; inhibition at 50 µM [1]: 30 ± 9%
NC(=O)c1ncn([C@@H]2O[C@H](CNCc3ccccc3)[C@@H](O)[C@H]2O)c1N [Compound No. 66, 5-Amino-1-β-D-(5-benzylamino-5-deoxyribofuranosyl)imidazole-4-carboxamide]	–	88.5±1.8 (5) %	–
Nc1c(C(=O)NC[C@H](O)c2ccc(O)c(O)c2)ncn1[C@@H]1O[C@H](CO)[C@@H](O)[C@H]1O [compound 42, (R)-5-Amino-1-β-D-ribofurano-sylimidazole-4-N-[2-hydroxy-2-(3,4-dihydroxyphenyl)ethyl]carboxamide]	–	–	IC50 [3, 5]: 6 µM
Nc1c(C(=O)Nc2ccc([N+](=O)[O-])cc2)ncn1[C@@H]1O[C@H](CO)[C@@H](O)[C@H]1O [Compound No. 58, 5-Amino-1-β-D-ribofuranosylimidazole-4-N-(4-nitrophenyl)carboxamide]	80 µM	–	–
Nc1c(C(=O)NC2CCC(NC(=O)c3ncn([C@@H]4O[C@H](CO)[C@@H](O)[C@H]4O)c3N)CC2)ncn1[C@@H]1O[C@H](CO)[C@@H](O)[C@H]1O (stereo partly drawn) [Compound No. 69, N,N'-Bis-(5-Amino-1-β-D-ribofuranosylimidazole-4-carbonyl)-1,4-diaminocyclohexane]	–	77.0±2.8 (6) %	–
NC(=O)c1ncn([C@@H]2O[C@H](CNCc3ccc(Cl)cc3)[C@@H](O)[C@H]2O)c1N [Compound No. 76, 5-Amino-1-(5-(4-chlorobenzyl-amino)-5-deoxyβ-D-ribofuranosyl)imidazole-4-carboxamide]	–	74.0±2.5 (6) %	–
Nc1c(C(=O)NCc2ccc(S(N)(=O)=O)cc2)ncn1[C@@H]1O[C@H](CO)[C@@H](O)[C@H]1O [Compound No. 75, 5-Amino-1-β-D-ribofuranosylimidazole-4-N-[(4-sulfamoylphenyl)methyl]carboxamide]	–	–	Inhibition of Adenosine Utilization (%) [1, 6]: 30 ± 3%
[N-]=[N+]=NC[C@H]1O[C@@H](n2cnc(C(=O)NCc3ccc(Cl)cc3)c2N)[C@H](O)[C@@H]1O [Compound No. 52, 5-Amino-1-(5-azido-5-deoxy-β-D-ribofuranosyl)imidazole-4-N-[(4-chlorophenyl)methyl]-carboxamide]	–	86.0±2.5 (5) %	inhibition at 5 µM [1, 7]: 56 ± 2%; inhibition at 50 µM [1, 6]: 71 ± 1%
Nc1c(C(=O)NCc2ccc(C(F)(F)F)cc2)ncn1[C@@H]1O[C@H](CO)[C@@H](O)[C@H]1O [Compound No. 74]	–	73.3±3.3 (6) %	–
Nc1c(C(=O)Nc2ccccc2Cl)ncn1[C@@H]1O[C@H](CO)[C@@H](O)[C@H]1O [Compound No. 64, 5-Amino-1-β-D-ribofuranosylimidazole-4-N-(2-chlorophenyl)carboxamide]	48 µM	–	–
Nc1c(C(=O)N2CCN(c3ccc([N+](=O)[O-])cc3)CC2)ncn1[C@@H]1O[C@H](CO)[C@@H](O)[C@H]1O [Compound No. 60, 5-Amino-4-[1-[4-(4-nitrophenyl)]piperazinocarbamoyl]-1-β-D-ribofuranosylimidazole]	17 µM	–	–
Nc1c(C(=O)NCCCc2ccc([N+](=O)[O-])cc2)ncn1[C@@H]1O[C@H](CO)[C@@H](O)[C@H]1O [Compound No. 73]	–	–	Inhibition of Adenosine Utilization (%) [1, 7]: 16 ± 0%; Inhibition of Adenosine Utilization (%) [1, 6]: 33 ± 9%
CSC[C@H]1O[C@@H](n2cnc(C(N)=O)c2N)[C@H](O)[C@@H]1O [Compound No. 54, 5-Amino-1-(5-deoxy-5-methylthio-β-D-ribofuranosyl)imidazole-4-carboxamide]	28 µM	–	–
Nc1c(C(=O)NCc2ccccc2Cl)ncn1[C@@H]1O[C@H](CO)[C@@H](O)[C@H]1O [Compound No. 24, 5-Amino-1-β-D-ribofuranosylimidazole-4-N-[(2-chlorophenyl)methyl]carboxamide]	300 µM	–	IC50 ([3]; Cavia porcellus): 400 µM
Nc1c(C(=O)NC2CC3CCC2C3)ncn1[C@@H]1O[C@H](CO)[C@@H](O)[C@H]1O (stereo partly drawn) [Compound No. 45, 5-Amino-1-β-D-ribofuranosylimidazole-4-N-(2-endo-norbornyl)carboxamide]	90 µM	–	IC50 ([3]; Cavia porcellus): 100 µM
Cl.NC[C@H]1O[C@@H](n2cnc(C(=O)NC3CCCC3)c2N)[C@H](O)[C@@H]1O [Compound No. 37, 5-Amino-1-(5-amino-5-deoxy-β-D-ribofuranosyl)imidazole-4-N-(cyclopentyl)carboxamide Hydrochloride]	–	71.9±3.0 (5) %	–
C[C@H]1O[C@@H](n2c(S)nc(C(N)=O)c2N)[C@H](O)[C@@H]1O [Compound No. 67, 5-Amino-2-thio-1-β-D-(5-deoxyribofuranosyl)imidazole-4-carboxamide]	–	77.4±5.7 (3) %	–
Nc1c(C(=O)NCc2cccc(I)c2)ncn1[C@@H]1O[C@H](CO)[C@@H](O)[C@H]1O [Compound No. 44, 5-Amino-1-β-D-ribofuranosyl-imidazole-4-N-[(3-iodophenyl)methyl]carboxamide]	–	–	IC50 [3, 4]: 20 µM
Nc1c(C(=O)NCCCCCCNC(=O)c2ncn([C@@H]3O[C@H](CO)[C@@H](O)[C@H]3O)c2N)ncn1[C@@H]1O[C@H](CO)[C@@H](O)[C@H]1O [Compound No. 68, N,N'-bis-(5-amino-1-β-D-ribofuranosylimidazole-4-carbonyl)-1,6-diaminohexane]	–	75.3±2.2 (4) %	–
